# How the values were obtained:
# arrowleaf sida = assay: Test F preemergence; assay type: in vivo, Sida rhombifolia
# Description: Seeds of plant species selected from corn (Zea mays), soybean (Glycine max), velvetleaf (Abutilon theophrasti), lambsquarters (Chenopodium album), wild poinsettia (Euphorbia heterophylla), pigweed, palmer (palmer pigweed, Amaranthus palmeri), common waterhemp (Amaranthus rudis), surinam grass (Brachiaria decumbens), large crabgrass (Digitaria sanguinalis), crabgrass, Brazil (Brazilian crabgrass, Digitaria horizontalis), fall panicum (Panicum dichotomiflorum), giant foxtail (Setaria faberii), green foxtail (Setaria viridis), goosegrass (Eleusine indica), johnsongrass (Sorghum halepense), common ragweed (Ambrosia elation), barnyardgrass (Echinochloa crus-galli), southern sandbur (Cenchrus echinatus), arrowleaf sida (Sida rhombifolia), Italian ryegrass (Lolium multiflorum), dayflower, VA (Virginia (VA) dayflower, Commelina virginica), field bindweed (Convolvulus arvensis), cocklebur (common cocklebur, Xanthium strumarium), morningglory (Ipomoea coccinea), nightshade (eastern black nightshade, Solanum ptycanthum), kochia (Kochia scoparia), yellow nutsedge (Cyperus esculentus), and hairy beggarticks (Bidens pilosa), were planted into a silt loam soil and treated preemergence with test chemicals formulated in a non-phytotoxic solvent mixture which included a surfactant.
# At the same time, plants from these crop and weed species and also horseweed (Canada horseweed, Conyza canadensis), smartweed (ladysthumb smartweed, Polygonum persicaria), waterhemp_RES1, (ALS & Triazine resistant common waterhemp, Amaranthus rudis), and waterhemp_RES2, (ALS & HPPD resistant common waterhemp, Amaranthus rudis) were treated with postemergence applications of test chemicals formulated in the same manner. Plants ranged in height from 2 to 18 cm for postemergence treatments (1- to 4-leaf stage). Treated plants and controls were maintained in a greenhouse for 14 to 21 days, after which time all species were compared to controls and visually evaluated. Plant response ratings, summarized in Table F, are based on a scale of 0 to 100 where 0 is no effect and 100 is complete control. A dash (-) response means no test result.
# pigweed = assay: Test D postemergence; assay type: in vivo, Amaranthus retroflexus; conditions: scale 0 to 100
# Description: (§1) Seeds of plant species selected from bluegrass (annual bluegrass, Poa annua), blackgrass (Alopecurus myosuroides), canarygrass (littleseed canarygrass, Phalaris minor), chickweed (common chickweed, Stellaria media), galium (catchweed bedstraw, Galium aparine), bromegrass, downy (downy bromegrass, Bromus tectorum), field poppy (Papaver rhoeas), field violet (Viola arvensis), foxtail, green (green foxtail, Setaria viridis), deadnettle (henbit deadnettle, Lamium amplexicaule), ryegrass, Italian (Italian ryegrass, Lolium multiflorum), kochia (Kochia scoparia), lambsquarters (Chenopodium album), oilseed rape (Brassica napus), pigweed (redroot pigweed, Amaranthus retroflexus), chamomile (scentless chamomile, Matricaria inodora), speedwell (bird's-eye speedwell, Veronica persica), barley, spring (spring barley, Hordeum vulgare), wheat, spring (spring wheat, Triticum aestivum), buckwheat, wild (wild buckwheat, Polygonum convolvulus), mustard, wild (wild mustard, Sinapis arvensis), oat, wild (wild oat, Avena fatua), radish, wild (wild radish, Raphanus raphanistrum), windgrass (Apera spica-venti), Russian thistle (Salsola kali), barley, winter (winter barley, Hordeum vulgare), and wheat, winter (winter wheat, Triticum aestivum) were planted into a silt loam soil and treated preemergence with test chemicals formulated in a non-phytotoxic solvent mixture which included a surfactant.
# (§2) At the same time, these species were planted in pots containing Redi-Earth® planting medium (Scotts Company, 14111 Scottslawn Road, Marysville, Ohio 43041) comprising spaghnum peat moss, vermiculite, wetting agent and starter nutrients and treated with postemergence applications of the test chemicals formulated in the same manner. Plants ranged in height from 2 to 18 cm (1- to 4-leaf stage). Treated plants and controls were maintained in a controlled growth environment for 14 to 21 days after which time all species were compared to controls and visually evaluated. Plant response ratings, summarized in Table D, are based on a scale of 0 to 100 where 0 is no effect and 100 is complete control. A dash (-) response means no test result.
# oilseed rape = assay: Test D postemergence; assay type: in vivo, Brassica napus; conditions: scale 0 to 100
# Method in brief: (§3)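 Visual 0-100 rating (100 = complete control) against untreated plants, made 14 to 21 days after treatment in a controlled environment. Compounds, formulated with surfactant in non-phytotoxic solvent, were applied either to seeds just sown in silt loam or to 1- to 4-leaf plants (2 to 18 cm) grown in peat-based medium.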
# lambsquarters [1] = assay: Test D preemergence; assay type: in vivo, Chenopodium album; conditions: for Plant response rating, Lambsquarters: Preemergence, scale 0 to 100
# Description: as §1, §2
# oat, wild = assay: Test D postemergence; assay type: in vivo, Avena fatua; conditions: scale 0 to 100
# Method in brief: as §3
# ryegrass, Italian = assay: Test D preemergence; assay type: in vivo, Lolium multiflorum; conditions: for Plant response rating, Ryegrass, Italian: Preemergence, scale 0 to 100
# Description: as §1, §2
# bromegrass, downy = assay: Test D preemergence; assay type: in vivo, Bromus tectorum; conditions: for Plant response rating, Bromegrass, Downy: Preemergence, scale 0 to 100
# Description: as §1, §2
# field poppy = assay: Test D postemergence; assay type: in vivo, Papaver rhoeas; conditions: scale 0 to 100
# Description: as §1, §2
# canarygrass = assay: Test D postemergence; assay type: in vivo, Phalaris minor; conditions: scale 0 to 100
# Description: as §1, §2
# buckwheat, wild = assay: Test D preemergence; assay type: in vivo, Polygonum convolvulus; conditions: for Plant response rating, Buckwheat, Wild: Preemergence, scale 0 to 100
# Description: as §1, §2
# bluegrass = assay: Test D postemergence; assay type: in vivo, Poa annua; conditions: scale 0 to 100
# Description: as §1, §2
# lambsquarters [2] = assay: Test D postemergence; assay type: in vivo, Chenopodium album; conditions: scale 0 to 100
# Method in brief: as §3
# [3] = 16 g ai/ha, taken as preemergence
compound,measurement,setting,value
CCc1cc(-c2ccc(C(F)(F)F)cc2)nn1Cc1ccnc(C(F)(F)F)c1 [Compound 110],"Plant response rating, Arrowleaf Sida","arrowleaf sida; Preemergence, 31 g ai/ha, scale 0 to 100",65
same,"Plant response rating, Arrowleaf Sida","arrowleaf sida; Preemergence, 62 g ai/ha, scale 0 to 100",80
same,"Plant response rating, Arrowleaf Sida","arrowleaf sida; Preemergence, 125 g ai/ha, scale 0 to 100",90
same,"Plant response rating, Arrowleaf Sida","arrowleaf sida; preemergence, 8 g ai/ha, scale 0 to 100, 100 is complete control",35
same,"Plant response rating, Arrowleaf Sida","arrowleaf sida; preemergence, 16 g ai/ha, scale 0 to 100, 100 is complete control",65
O=C(NC1CC1)c1cc(CCF)n(Cc2ccnc(C(F)(F)F)c2)n1 [Compound 176],"Plant response rating, Pigweed","pigweed; Postemergence, 16 g ai/ha",55
same,Pigweed plant response rating,"pigweed; Postemergence, 31 g ai/ha",65
same,Pigweed plant response rating,"pigweed; Postemergence, 125 g ai/ha",70
same,Pigweed plant response rating,"pigweed; postemergence, 62 g ai/ha",65
same,"Plant response rating, Oilseed Rape","oilseed rape; Postemergence, 16 g ai/ha",20
same,Oilseed Rape plant response rating,"oilseed rape; Postemergence, 31 g ai/ha",40
same,Oilseed Rape plant response rating,"oilseed rape; Postemergence, 125 g ai/ha",55
same,Oilseed Rape plant response rating,"oilseed rape; postemergence, 62 g ai/ha",40
same,"Plant response rating (scale 0 to 100), Lambsquarters",lambsquarters [1]; [3],0
same,"Plant response rating, Lambsquarters",lambsquarters [1]; 62 g ai/ha,65
same,"Plant response rating, Lambsquarters",lambsquarters [1]; 125 g ai/ha,95
same,"Plant response rating, Oat, Wild","oat, wild; Postemergence, 16 g ai/ha",5
same,"Oat, Wild plant response rating","oat, wild; Postemergence, 31 g ai/ha",15
same,"Oat, Wild plant response rating","oat, wild; Postemergence, 125 g ai/ha",20
same,"Oat, Wild plant response rating","oat, wild; postemergence, 62 g ai/ha",15
same,"Plant response rating (scale 0 to 100), Ryegrass, Italian","ryegrass, Italian; [3]",0
same,"Plant response rating, Ryegrass, Italian","ryegrass, Italian; 62 g ai/ha",25
same,"Plant response rating, Ryegrass, Italian","ryegrass, Italian; 125 g ai/ha",30
same,"Plant response rating (scale 0 to 100), Bromegrass, Downy","bromegrass, downy; [3]",0
same,"Plant response rating, Bromegrass, Downy","bromegrass, downy; 31 g ai/ha",0
same,"Plant response rating, Bromegrass, Downy","bromegrass, downy; 62 g ai/ha",15
same,"Plant response rating, Bromegrass, Downy","bromegrass, downy; 125 g ai/ha",25
same,"Plant response rating, Field Poppy","field poppy; Postemergence, 16 g ai/ha",45
same,Field Poppy plant response rating,"field poppy; Postemergence, 31 g ai/ha",50
same,Field Poppy plant response rating,"field poppy; Postemergence, 125 g ai/ha",65
same,Field Poppy plant response rating,"field poppy; postemergence, 62 g ai/ha",50
same,"Plant response rating, Canarygrass","canarygrass; Postemergence, 16 g ai/ha",5
same,Canarygrass plant response rating,"canarygrass; Postemergence, 31 g ai/ha",15
same,Canarygrass plant response rating,"canarygrass; Postemergence, 125 g ai/ha",20
same,Canarygrass plant response rating,"canarygrass; postemergence, 62 g ai/ha",15
same,"Plant response rating (scale 0 to 100), Buckwheat, Wild","buckwheat, wild; [3]",0
same,"Plant response rating, Buckwheat, Wild","buckwheat, wild; 31 g ai/ha",15
same,"Plant response rating, Buckwheat, Wild","buckwheat, wild; 62 g ai/ha",95
same,"Plant response rating, Buckwheat, Wild","buckwheat, wild; 125 g ai/ha",85
same,"Plant response rating, Bluegrass","bluegrass; Postemergence, 16 g ai/ha",5
same,Bluegrass plant response rating,"bluegrass; Postemergence, 31 g ai/ha",15
same,Bluegrass plant response rating,"bluegrass; Postemergence, 125 g ai/ha",25
same,Bluegrass plant response rating,"bluegrass; postemergence, 62 g ai/ha",15
same,"Plant response rating, Lambsquarters","lambsquarters [2]; Postemergence, 16 g ai/ha",55
same,Lambsquarters plant response rating,"lambsquarters [2]; Postemergence, 31 g ai/ha",60
same,Lambsquarters plant response rating,"lambsquarters [2]; Postemergence, 125 g ai/ha",75
same,Lambsquarters plant response rating,"lambsquarters [2]; postemergence, 62 g ai/ha",60

# Reference: patent US20150105252A1, “SUBSTITUTED PYRAZOLES AS HERBICIDES” (E I DU PONT DE NEMOURS AND COMPANY, priority 2013, published 2015)
